Measurements published in ChEMBL document CHEMBL3124760, “Inhibitors of NS5A for Treatment of HCV Infection” (ACS Med Chem Lett, 2014).

Tested on: Hepatitis C virus
Test: Antiviral activity against Hepatitis C virus genotype 1a expressing neomycin phosphotransferase after 3 days by luciferase reporter gene assay
Type: functional, organism-based, Hepacivirus hominis
Details: subtype 1a, 72 h

| EC50 [pM] | Compound |
| --- | --- |
| 6 | COC(=O)N[C@H](C(=O)N1CCC[C@H]1c1nc2cc(-c3ccc4cc(-c5cnc([C@@H]6C[C@H]7C[C@H]7N6C(=O)[C@@H](NC(=O)OC)C(C)C)[nH]5)ccc4c3)ccc2c(=O)[nH]1)C(C)C |
| 8 | COC(=O)N[C@H](C(=O)N1CC2(C[C@H]1c1ncc(-c3ccc4cc(-c5ccc6c(=O)[nH]c([C@@H]7C[C@H]8C[C@H]8N7C(=O)[C@@H](NC(=O)OC)C(C)C)nc6c5)ccc4c3)[nH]1)OCCO2)C(C)C |
| 26 | COC(=O)N[C@H](C(=O)N1CC2(C[C@H]1c1nc3cc(-c4ccc5cc(-c6cnc([C@@H]7C[C@H]8C[C@H]8N7C(=O)[C@@H](NC(=O)OC)C(C)C)[nH]6)ccc5c4)ccc3c(=O)[nH]1)OCCCO2)C(C)C |
| 6 | COC(=O)N[C@H](C(=O)N1CCC[C@H]1c1ncc(-c2ccc3cc(-c4ccc5c(=O)[nH]c([C@@H]6C[C@@H]7CCCC[C@@H]7N6C(=O)[C@@H](NC(=O)OC)C(C)C)nc5c4)ccc3c2)[nH]1)C(C)C |
